Where two headings read alike, the source gives them in different places.
Key:
[1] = tested on: U87MG human glioblastoma cells; test: Cell viability of U87MG cells, ATP assay; assay type: cell-based; settings: Homo sapiens, U-87 MG, 24 h
Method: U87MG human glioblastoma cells were maintained in culture at 37° C., 5% CO2, complete medium for 24 h in the presence of various final concentrations of YK-NCL-176, YK-NCL-177, YK-NCL-178, YK-NCL-179, YK-NCL-180, YK-NCL-183, YK-NCL-184, YK-NCL-185, YK-NCL-186, YK-NCL-187, YK-NCL-188, YK-NCL-189, YK-NCL-190, YK-NCL-191, YK-NCL-192, YK-NCL-193, YK-NCL-194, YK-NCL-195, YK-NCL-196, YK-NCL-197, NK-YCL-198, or YK-NCL-199, each in DMSO, with or without 1 μg/mL TRAIL. DMSO alone was used as a negative control. Following the incubation, cell viability was measured using an ATP assay.

[2] = tested on: A2780 human ovarian cancer cells; test: Cell viability of A2780 cells, ATP assay; assay type: cell-based; settings: Homo sapiens, A2780, 24 h
Method: (§1) A2780 human ovarian cancer cells were maintained in culture at 37° C., 5% CO2, complete medium for 24 h in the presence of various final concentrations of DM-PIT-1, YK-NCL-176, YK-NCL-198, or NK-YCL-240, each in DMSO, with or without 1 μg/mL TRAIL. DMSO alone was used as a negative control. Following the incubation, cell viability was measured using an ATP assay.
as §1, with “YK-NCL-217, YK-NCL-218, NK-YCL-219, YK-NCL-220, YK-NCL-234,” for “YK-NCL-176, YK-NCL-198,”, “YK-NCL-241,” for “NK-YCL-240,”

[3] = in DMSO, without TRAIL, read-out: EC50 alone
[4] = with 1 μg/mL TRAIL, read-out: EC50 with TRAIL

EC50 [1, 3] [µM] | EC50 [1, 4] [µM] | EC50 [2, 3] [µM] | EC50 [2, 4] [µM] | SMILES
> 100 | > 100 | – | – | COc1ccc(Cl)cc1-n1nncc1C(=O)c1ccccc1 [YK-NCL-177]
> 100 | > 100 | – | – | COc1ccc(Cl)cc1-n1cc(C(=O)c2ccccc2)nn1 [YK-NCL-178]
> 100 | > 100 | – | – | COc1ccc(Cl)cc1-n1cc(C(O)(c2ccccc2)c2cn(-c3cc(Cl)ccc3OC)nn2)nn1 [YK-NCL-180]
> 100 | > 100 | – | – | O=C(c1ccc2ccccc2c1)c1cn(-c2cc(Cl)ccc2O)nn1 [YK-NCL-186]
85.2 | 74.9 | – | – | Cc1cccc(O)c1-n1cc(C(=O)c2ccc3ccccc3c2)nn1 [YK-NCL-187]
> 100 | > 100 | – | – | O=C(c1ccc2ccccc2c1)c1cn(-c2ccc([N+](=O)[O-])cc2O)nn1 [YK-NCL-189]
57.8 | 30.6 | – | – | Cc1cc(C)cc(C(=O)c2cn(-c3cc(Cl)ccc3O)nn2)c1 [YK-NCL-190]
> 100 | > 100 | – | – | Cc1cc(C)cc(C(=O)c2cn(-c3cc(C)ccc3O)nn2)c1 [YK-NCL-193]
> 100 | 95.3 | – | – | CC(C)c1ccc(C(=O)c2cn(-c3ccc([N+](=O)[O-])cc3O)nn2)cc1 [YK-NCL-199]
– | – | > 100 | 22.8 | Cc1cccc(O)c1-n1cc(C(O)(c2ccccc2)c2cn(-c3c(C)cccc3O)nn2)nn1 [YK-NCL-218]
– | – | 16.2 | 14 | O=C(NCc1cn(-c2cc(Cl)ccc2O)nn1)c1cc(C(F)(F)F)cc(C(F)(F)F)c1 [YK-NCL-234]

The remaining lines, values behind:

SMILES | EC50 [1, 3] [µM] | EC50 [1, 4] [µM] | EC50 [2, 3] [µM] | EC50 [2, 4] [µM]
Cc1cc(C)cc(C(=O)c2cn(-c3ccc(Cl)cc3O)nn2)c1 [YK-NCL-183] | > 100 | 64.4 | – | –
Cc1ccc(O)c(-n2cc(C(=O)c3ccccc3)nn2)c1 [YK-NCL-184] | > 100 | > 100 | – | –
Cc1cccc(O)c1-n1cc(C(=O)c2ccccc2)nn1 [YK-NCL-185] | 8.1 | 8 | – | –
Cc1ccc(O)c(-n2cc(C(=O)c3ccc4ccccc4c3)nn2)c1 [YK-NCL-188] | > 100 | > 100 | – | –
O=C(c1ccccc1)c1cn(-c2ccc(Cl)cc2O)nn1 [YK-NCL-191] | 48.9 | 42.3 | – | –
Cc1cc(C)cc(C(=O)c2cn(-c3c(C)cccc3O)nn2)c1 [YK-NCL-192] | 104 | 98.4 | – | –
Cc1cc(C)cc(C(=O)c2cn(-c3ccc([N+](=O)[O-])cc3O)nn2)c1 [YK-NCL-194] | 89.1 | 70.5 | – | –
CC(C)c1ccc(C(=O)c2cn(-c3cc(Cl)ccc3O)nn2)cc1 [YK-NCL-195] | 64.1 | 41.6 | – | –
Cc1cccc(O)c1-n1cc(C(=O)c2ccc(C(C)C)cc2)nn1 [YK-NCL-196] | > 100 | > 100 | – | –
Cc1ccc(O)c(-n2cc(C(=O)c3ccc(C(C)C)cc3)nn2)c1 [YK-NCL-197] | > 100 | > 100 | – | –
Cc1cccc(O)c1-n1cc(C(O)(c2cc(C(F)(F)F)cc(C(F)(F)F)c2)c2cn(-c3c(C)cccc3O)nn2)nn1 [YK-NCL-217] | – | – | 50.9 | 13.5
Cc1ccc(O)c(-n2cc(C(O)(c3ccccc3)c3cn(-c4cc(C)ccc4O)nn3)nn2)c1 [YK-NCL-219] | – | – | 24.1 | 9.2
Cc1cc(C)cc(C(O)(c2cn(-c3c(C)cccc3O)nn2)c2cn(-c3c(C)cccc3O)nn2)c1 [YK-NCL-220] | – | – | > 100 | 16.9
Oc1ccc(Cl)cc1-n1cc(CC(O)(c2ccccc2)c2cn(-c3cc(Cl)ccc3O)nn2)nn1 (centres unmarked) [YK-NCL-241] | – | – | > 100 | > 100
